Test results taken from patent US6602220B1, “Miniature air-controlled drug selector and delivery device portable by small animals” (The Research Foundation of State University of New York, priority 2000, dated 2003).

Key:
[1] = tested on: neocortical neuron; assay: Single-cell recording with microdialysis drug delivery via minivalve, neocortex of freely moving rat; assay type: in vivo
Procedure: The experiment was performed on a freely moving rat which carried the minivalve 100 of the present invention on its head as illustrated in FIG. 1.

[2] = tested on: single neuron, in the hippocampus; assay: Single-cell recording/microdialysis study with minivalve, hippocampus of freely moving rat; assay type: in vivo
Excerpt: Referring now to FIGS. 6a-6c, there is illustrated graphical data from a single-cell recording/microdialysis study performed with the minivalve 100 of the present invention. The recordings were made from the same single neuron, in the hippocampus of the freely moving rat 102 having the minivalve 100 mounted on its head, as illustrated in FIG. 1.

Structure (SMILES)	effect on cell firing in the neocortex ([1]; ethanol delivered via microdialysis for two minutes, freely moving rat)	time to effect after the minivalve was switched ([1]; ethanol, neocortex)	effect on firing of hippocampal neuron, first perfusion ([2]; first ethanol perfusion into hippocampus recording site)	time to effect after minivalve activation ([2]; first ethanol perfusion, hippocampus)	effect on firing of hippocampal neuron, second delivery ([2]; second ethanol delivery, same neuron)	effect on firing of a neocortical neuron, first drug perfusion ([1]; 500 μM NMDA via microdialysis probe, freely moving rat)	time to effect after the minivalve switch ([1]; 500 μM NMDA, first perfusion, switch from position 1 to position 2) [min]	effect on firing of a neocortical neuron, second delivery ([1]; second NMDA delivery after wash-out)	effect of third exposure ([1]; third NMDA exposure three hours later)	effect on firing of hippocampal neuron, subsequent application ([2]; NMDA application through the probe after the second ethanol delivery)
CCO [ethanol]	instant cell firing suppressant effect	within one minute	suppressed the firing of the recorded neuron	as quickly as two minutes	ineffective	–	–	–	–	–
CN[C@H](CC(=O)O)C(=O)O [NMDA]	–	–	–	–	–	brief firing rate increase at point D, followed by a silent period	≤ 1	ineffective	clear excitatory effects associated with an EEG seizure	initial firing rate increase, followed by electrical silence
